Assay results as given in paper PMC6108078 (Chemical research in toxicology, 2018).
Where “and” joins values, the source holds several entries; their conditions need not be identical. Equal entries are not always repeated. Where two headings read alike, the source gives them in different places. Values belong to the compound of their own block, whether it stands above or below them.

Tests used:
[1] = type: in vitro ADME, human
[2] = mass balance studies in humans; cited from earlier work
[3] = cited from earlier work
[4] = monkeys administered [14C]sunitinib L-malate; ref sunitinib NDA document, 9; cited from earlier work
P450 3A4 = P450 3A4 (Homo sapiens, UniProt P08684); assay: Kinetics of sunitinib metabolite formation by recombinant P450 3A4; type: in vitro ADME; settings: sunitinib N-deethylation (M1 formation), recombinant enzymes
Chain of P450 3A4 (P08684 whole entry): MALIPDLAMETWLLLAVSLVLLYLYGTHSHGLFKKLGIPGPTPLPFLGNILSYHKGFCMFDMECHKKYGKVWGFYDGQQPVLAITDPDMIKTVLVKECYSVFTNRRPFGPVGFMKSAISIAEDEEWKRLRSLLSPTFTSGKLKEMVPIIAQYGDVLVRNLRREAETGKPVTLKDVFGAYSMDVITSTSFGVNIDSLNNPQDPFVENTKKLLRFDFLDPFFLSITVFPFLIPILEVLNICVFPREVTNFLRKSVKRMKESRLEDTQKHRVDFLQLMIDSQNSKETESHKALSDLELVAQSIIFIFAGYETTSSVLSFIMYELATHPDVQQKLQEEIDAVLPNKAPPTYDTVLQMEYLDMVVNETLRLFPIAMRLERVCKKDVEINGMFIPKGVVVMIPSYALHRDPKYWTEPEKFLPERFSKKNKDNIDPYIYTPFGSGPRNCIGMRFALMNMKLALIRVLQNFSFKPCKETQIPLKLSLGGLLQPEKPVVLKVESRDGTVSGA

[5] = for decrease of M5 formation compared to vehicle control: furafylline 25 μM, quinidine 2 μM
[6] = GSH trapping in pooled human liver microsomes; type: in vitro ADME; settings: microsomal incubations in the absence of NADPH supplementation
[7] = patients taking sunitinib; cited from earlier work
HepG2 cells = settings: treatment of HepG2 cells; cited from earlier work
[8] = in the absence of dGSH, sunitinib 25 μM, 1 mg/mL, 30 min
[9] = in the presence of dGSH (1 mM), sunitinib 25 μM, 1 mg/mL, 30 min
[10] = sunitinib 10 μM, 0.1 mg/mL, GSH 5 mM, 10 min, ketoconazole 1 μM, CYP3cide 2 μM, mean ± SD, n = 3

decrease of M5 formation compared to vehicle control [5, 10]: 62% and 62 ± 17%
SMILES: Cc1nc2c([nH]1)c(=O)n(C)c(=O)n2Cc1ccco1 [furafylline]

effect on formation of M3 and M5 ([5]; initial experiments, coincubation with sunitinib, data not shown): significantly increased
increase of M3 levels compared to control ([5]; sunitinib 10 μM, 0.1 mg/mL, GSH 5 mM, 10 min, α-naphthoflavone 1 μM, mean ± SD, n = 3): 41 ± 17%
SMILES: O=c1cc(-c2ccccc2)oc2c1ccc1ccccc12 [α-naphthoflavone]

Continued, compound first:

SMILES: CCNCCNC(=O)c1c(C)[nH]c(/C=C2\C(=O)Nc3ccc(F)cc32)c1C [M1, N-desethylsunitinib]
M1 share of the metabolic turnover of sunitinib [1, 8]: 70%
ratio of M1 to sunitinib UV peak area [1, 8]: 0.70
M1 share of the metabolic turnover of sunitinib [1, 9]: 41%
ratio of M1 to sunitinib (UV peak area at 420–440 nm) [1, 9]: 0.41
M1 share of sunitinib metabolic turnover in human liver microsomes ([1]; summary statement in discussion): ≥ 41%
fold higher M1 levels in the absence of dGSH compared to in the presence of dGSH ([1]; sunitinib 25 μM, 1 mg/mL, 30 min, UV absorbance peak area at 430 nm, n = 2-3): 2.5 fold
share of the total dose [2]: 32–52%
activity relative to parent drug [3]: equal to that of the parent drug
share of the total radioactivity recovered in feces [4]: 20–40%
fold higher efficiency (kcat/Km) of P450 3A4 compared to P450 1A2 (P450 3A4): ~5 fold

SMILES: CC(=O)N1CCN(c2ccc(OCC3COC(Cn4ccnc4)(c4ccc(Cl)cc4Cl)O3)cc2)CC1 (centres unmarked) [ketoconazole]
decrease of M5 formation compared to vehicle control [5, 10]: 52 ± 4%
decrease of M1 levels compared to vehicle control [5, 10]: 88% and 88 ± 5%
decrease of M3 levels compared to control [5, 10]: 40 ± 9%

SMILES: CCN(CC)CCNC(=O)c1c(C)[nH]c(/C=C2\C(=O)Nc3ccc(F)cc32)c1C [sunitinib]
direct GSH conjugation of parent drug (Sun–SG) [6]: evidence for the direct conjugation of GSH to the parent drug
occurrence of clinically significant liver injury [7]: 3–4 % of patients
occurrence of liver failure [7]: 0.3 % of patients
hepatocellular toxicity effects (HepG2 cells): increase the production of reactive oxygen species, disrupt the mitochondrial membrane potential, deplete glutathione content, and induce apoptosis in a concentration-dependent manner
